Experimental data from ChEMBL document CHEMBL1201862, “PubChem BioAssay data set” (2004).
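Growth conditions: 96-well plates. Treatment: test compound, 48 hours, 5 concentrations. Analysis: linear interpolation between bracketing concentrations; unreached endpoints set to highest concentration. GI50 is the concentration that inhibits growth by half.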 The source made the active and inactive calls. No stated cut-off is given here; in the data, active = GI50 up to about 1.1 µM and inactive = higher.

Assays:
Experiment in all cases: NCI anticancer screen, dose series, 48 h
[1] = system: HT-29
[2] = system: PC-3
[3] = system: Malme-3M
[4] = system: COLO 205
[5] = system: KM12
[6] = system: HOP-62
[7] = system: T47D
[8] = system: K562
[9] = system: SK-MEL-5
[10] = system: NCI-H522
[11] = system: OVCAR-3
[12] = system: NCI-H460
[13] = system: OVCAR-5
[14] = system: SK-MEL-2
[15] = system: SN12C
[16] = system: Hs-578T
[17] = system: RXF 393
[18] = system: CCRF-CEM
[19] = system: IGROV-1
[20] = system: EKVX
[21] = system: MDA-MB-435
[22] = system: HOP-92
[23] = system: TK-10
[24] = system: UO-31
[25] = system: SF-295
[26] = system: MOLT-4
[27] = system: A549
[28] = system: MDA-MB-231
[29] = system: SNB-75
[30] = system: HCT-116
[31] = system: DU-145
[32] = system: UACC-257
[33] = system: 786-0
[34] = system: HCT-15
[35] = system: OVCAR-4
[36] = system: OVCAR-8
[37] = system: SK-OV-3
[38] = system: SW-620
[39] = system: SK-MEL-28
[40] = system: SF-539
[41] = system: MDA-N
[42] = system: UACC-62
[43] = system: NCI/ADR-RES
[44] = system: NCI-H226
[45] = system: RPMI-8226
[46] = system: SR
[47] = system: SF-268
[48] = system: ACHN
[49] = system: A498
[50] = system: NCI-H23
[51] = system: MCF7
[52] = system: HCC 2998
[53] = system: HL-60
[54] = system: LOX IMVI
[55] = system: U-251
[56] = system: SNB-19
[57] = system: CAKI-1
[58] = system: M14

Measured: GI50

CCOC(=O)Cn1sc2ncc([N+](=O)[O-])cc2c1=O
16.4 µM: [34]
inactive: [1] 16.2 µM | [2] 14.8 µM | [3] 17.9 µM | [4] 13 µM | [5] 18.5 µM | [6] 15.4 µM | [7] 16.5 µM | [8] 2.84 µM | [9] 27.5 µM | [10] 18.8 µM | [11] 16.8 µM | [12] 17.1 µM | [13] 19.2 µM | [14] 22.2 µM | [15] 16.6 µM | [16] 41 µM | [17] 20 µM | [18] 2.07 µM | [19] 13.2 µM | [20] 27.9 µM | [21] 16.2 µM | [22] 13.3 µM | [23] 17.9 µM | [24] 10.1 µM | [25] 18.9 µM | [26] 2.86 µM | [27] 19.3 µM | [28] 15.7 µM | [29] 39.5 µM | [30] 17.3 µM | [31] > 100 µM | [32] 17.1 µM | [33] 16.9 µM | [35] 18.8 µM | [36] 16.3 µM | [37] 18.3 µM | [38] 16.1 µM | [39] 15.1 µM | [40] 19.5 µM | [41] 12.4 µM | [42] 23 µM | [43] 13.9 µM | [44] > 100 µM | [45] 8 µM | [46] 4.02 µM | [47] 24.5 µM | [48] 15.9 µM | [49] > 100 µM | [50] 17.9 µM | [51] 18.1 µM | [52] 16.4 µM | [53] 8.15 µM | [54] 13.6 µM

O=C1OCOC2(CCCC2)C1c1ccccc1 (stereo unspecified)
inactive: [1] > 100 µM | [2] > 100 µM | [3] > 100 µM | [4] > 100 µM | [5] > 100 µM | [6] > 100 µM | [7] > 100 µM | [8] > 100 µM | [9] > 100 µM | [10] > 100 µM | [55] > 100 µM | [11] > 100 µM | [12] > 100 µM | [13] > 100 µM | [14] > 100 µM | [15] > 100 µM | [16] > 100 µM | [17] > 100 µM | [18] > 100 µM | [19] > 100 µM | [20] > 100 µM | [21] > 100 µM | [22] > 100 µM | [23] > 100 µM | [24] > 100 µM | [25] > 100 µM | [26] > 100 µM | [27] > 100 µM | [28] > 100 µM | [29] > 100 µM | [30] > 100 µM | [31] > 100 µM | [56] > 100 µM | [32] > 100 µM | [33] > 100 µM | [35] > 100 µM | [36] > 100 µM | [37] > 100 µM | [38] > 100 µM | [39] > 100 µM | [40] > 100 µM | [57] > 100 µM | [41] > 100 µM | [42] > 100 µM | [43] > 100 µM | [44] > 100 µM | [58] > 100 µM | [45] > 100 µM | [46] > 100 µM | [47] > 100 µM | [48] > 100 µM | [49] > 100 µM | [50] > 100 µM | [52] > 100 µM | [53] > 100 µM | [54] > 100 µM
> 100 µM: [34]
